Laboratory results: BindingDB's records for patent US12187742 (Xrad Therapeutics, 2025)

The molecules below were run against DNA-dependent protein kinase catalytic subunit (Homo sapiens, UniProt P78527) (assay: DNA-PK Enzyme-Linked Immunosorbent Assay).
Procedure: On day one, coat 96-well plate (ThermoFisher. Cat #: 442404) with GST-p53 (1-101) peptide (purified by Pharmaron, BCS department) by diluting 3 μg of GST-p53 each well with 0.1 M Na2CO3/NaHCO3, pH 9.6. Incubate the plate overnight at 4° C. The second day, remove coating buffer, wash 2× with PBST (1×PBS containing 0.1% Tween-20). Then add DNA-PK enzyme solution (Invitrogen, #PR9107A; the final DNA-PK concentration is 0.1 μg/mL), series dilution compounds (the final top concentration is 100 nM, 3 fold series dilution, with total 10 doses) and ATP solution (the final ATP concentration is 20 μM) to the 96-well plate. Incubate the plate at 25° C. for 1 hour. Then wash 3× with PBST (1×PBS containing 0.1% Tween-20). Block the plate with PBST+ 1% BSA at 4° C. overnight. The third day, wash 4× with PBST (1×PBS containing 0.1% Tween-20). Then add Phospho-p53 primary antibody (cell signaling Technology, #9286, Phospho-p53 (Ser15) (16G8) Mouse mAb) (1/1000) to each well. Seal with plate and incubate the plate for 1 h at 37° C. Wash 4× with PBST (1×PBS containing 0.1% Tween-20), add 100 μL of HRP-linked secondary antibody (Cell signaling Technology, #7076, Anti-mouse IgG, HRP-linked Antibody) (1/1000) to each well. Seal with tape and incubate the plate for 30 min at 37° C. Wash 4× with PBST (1×PBS containing 0.1% Tween-20), add 100 μL of TMB (Cell signaling Technology, #7004) substrate to each well. Seal with tape and incubate the plate for 10 min at 37° C. Then add 100 μL of Stop solution (Cell signaling Technology, #7002) to each well. Read the plate at 450 nm to detect absorption.

Sequence of DNA-dependent protein kinase catalytic subunit (P78527 whole entry): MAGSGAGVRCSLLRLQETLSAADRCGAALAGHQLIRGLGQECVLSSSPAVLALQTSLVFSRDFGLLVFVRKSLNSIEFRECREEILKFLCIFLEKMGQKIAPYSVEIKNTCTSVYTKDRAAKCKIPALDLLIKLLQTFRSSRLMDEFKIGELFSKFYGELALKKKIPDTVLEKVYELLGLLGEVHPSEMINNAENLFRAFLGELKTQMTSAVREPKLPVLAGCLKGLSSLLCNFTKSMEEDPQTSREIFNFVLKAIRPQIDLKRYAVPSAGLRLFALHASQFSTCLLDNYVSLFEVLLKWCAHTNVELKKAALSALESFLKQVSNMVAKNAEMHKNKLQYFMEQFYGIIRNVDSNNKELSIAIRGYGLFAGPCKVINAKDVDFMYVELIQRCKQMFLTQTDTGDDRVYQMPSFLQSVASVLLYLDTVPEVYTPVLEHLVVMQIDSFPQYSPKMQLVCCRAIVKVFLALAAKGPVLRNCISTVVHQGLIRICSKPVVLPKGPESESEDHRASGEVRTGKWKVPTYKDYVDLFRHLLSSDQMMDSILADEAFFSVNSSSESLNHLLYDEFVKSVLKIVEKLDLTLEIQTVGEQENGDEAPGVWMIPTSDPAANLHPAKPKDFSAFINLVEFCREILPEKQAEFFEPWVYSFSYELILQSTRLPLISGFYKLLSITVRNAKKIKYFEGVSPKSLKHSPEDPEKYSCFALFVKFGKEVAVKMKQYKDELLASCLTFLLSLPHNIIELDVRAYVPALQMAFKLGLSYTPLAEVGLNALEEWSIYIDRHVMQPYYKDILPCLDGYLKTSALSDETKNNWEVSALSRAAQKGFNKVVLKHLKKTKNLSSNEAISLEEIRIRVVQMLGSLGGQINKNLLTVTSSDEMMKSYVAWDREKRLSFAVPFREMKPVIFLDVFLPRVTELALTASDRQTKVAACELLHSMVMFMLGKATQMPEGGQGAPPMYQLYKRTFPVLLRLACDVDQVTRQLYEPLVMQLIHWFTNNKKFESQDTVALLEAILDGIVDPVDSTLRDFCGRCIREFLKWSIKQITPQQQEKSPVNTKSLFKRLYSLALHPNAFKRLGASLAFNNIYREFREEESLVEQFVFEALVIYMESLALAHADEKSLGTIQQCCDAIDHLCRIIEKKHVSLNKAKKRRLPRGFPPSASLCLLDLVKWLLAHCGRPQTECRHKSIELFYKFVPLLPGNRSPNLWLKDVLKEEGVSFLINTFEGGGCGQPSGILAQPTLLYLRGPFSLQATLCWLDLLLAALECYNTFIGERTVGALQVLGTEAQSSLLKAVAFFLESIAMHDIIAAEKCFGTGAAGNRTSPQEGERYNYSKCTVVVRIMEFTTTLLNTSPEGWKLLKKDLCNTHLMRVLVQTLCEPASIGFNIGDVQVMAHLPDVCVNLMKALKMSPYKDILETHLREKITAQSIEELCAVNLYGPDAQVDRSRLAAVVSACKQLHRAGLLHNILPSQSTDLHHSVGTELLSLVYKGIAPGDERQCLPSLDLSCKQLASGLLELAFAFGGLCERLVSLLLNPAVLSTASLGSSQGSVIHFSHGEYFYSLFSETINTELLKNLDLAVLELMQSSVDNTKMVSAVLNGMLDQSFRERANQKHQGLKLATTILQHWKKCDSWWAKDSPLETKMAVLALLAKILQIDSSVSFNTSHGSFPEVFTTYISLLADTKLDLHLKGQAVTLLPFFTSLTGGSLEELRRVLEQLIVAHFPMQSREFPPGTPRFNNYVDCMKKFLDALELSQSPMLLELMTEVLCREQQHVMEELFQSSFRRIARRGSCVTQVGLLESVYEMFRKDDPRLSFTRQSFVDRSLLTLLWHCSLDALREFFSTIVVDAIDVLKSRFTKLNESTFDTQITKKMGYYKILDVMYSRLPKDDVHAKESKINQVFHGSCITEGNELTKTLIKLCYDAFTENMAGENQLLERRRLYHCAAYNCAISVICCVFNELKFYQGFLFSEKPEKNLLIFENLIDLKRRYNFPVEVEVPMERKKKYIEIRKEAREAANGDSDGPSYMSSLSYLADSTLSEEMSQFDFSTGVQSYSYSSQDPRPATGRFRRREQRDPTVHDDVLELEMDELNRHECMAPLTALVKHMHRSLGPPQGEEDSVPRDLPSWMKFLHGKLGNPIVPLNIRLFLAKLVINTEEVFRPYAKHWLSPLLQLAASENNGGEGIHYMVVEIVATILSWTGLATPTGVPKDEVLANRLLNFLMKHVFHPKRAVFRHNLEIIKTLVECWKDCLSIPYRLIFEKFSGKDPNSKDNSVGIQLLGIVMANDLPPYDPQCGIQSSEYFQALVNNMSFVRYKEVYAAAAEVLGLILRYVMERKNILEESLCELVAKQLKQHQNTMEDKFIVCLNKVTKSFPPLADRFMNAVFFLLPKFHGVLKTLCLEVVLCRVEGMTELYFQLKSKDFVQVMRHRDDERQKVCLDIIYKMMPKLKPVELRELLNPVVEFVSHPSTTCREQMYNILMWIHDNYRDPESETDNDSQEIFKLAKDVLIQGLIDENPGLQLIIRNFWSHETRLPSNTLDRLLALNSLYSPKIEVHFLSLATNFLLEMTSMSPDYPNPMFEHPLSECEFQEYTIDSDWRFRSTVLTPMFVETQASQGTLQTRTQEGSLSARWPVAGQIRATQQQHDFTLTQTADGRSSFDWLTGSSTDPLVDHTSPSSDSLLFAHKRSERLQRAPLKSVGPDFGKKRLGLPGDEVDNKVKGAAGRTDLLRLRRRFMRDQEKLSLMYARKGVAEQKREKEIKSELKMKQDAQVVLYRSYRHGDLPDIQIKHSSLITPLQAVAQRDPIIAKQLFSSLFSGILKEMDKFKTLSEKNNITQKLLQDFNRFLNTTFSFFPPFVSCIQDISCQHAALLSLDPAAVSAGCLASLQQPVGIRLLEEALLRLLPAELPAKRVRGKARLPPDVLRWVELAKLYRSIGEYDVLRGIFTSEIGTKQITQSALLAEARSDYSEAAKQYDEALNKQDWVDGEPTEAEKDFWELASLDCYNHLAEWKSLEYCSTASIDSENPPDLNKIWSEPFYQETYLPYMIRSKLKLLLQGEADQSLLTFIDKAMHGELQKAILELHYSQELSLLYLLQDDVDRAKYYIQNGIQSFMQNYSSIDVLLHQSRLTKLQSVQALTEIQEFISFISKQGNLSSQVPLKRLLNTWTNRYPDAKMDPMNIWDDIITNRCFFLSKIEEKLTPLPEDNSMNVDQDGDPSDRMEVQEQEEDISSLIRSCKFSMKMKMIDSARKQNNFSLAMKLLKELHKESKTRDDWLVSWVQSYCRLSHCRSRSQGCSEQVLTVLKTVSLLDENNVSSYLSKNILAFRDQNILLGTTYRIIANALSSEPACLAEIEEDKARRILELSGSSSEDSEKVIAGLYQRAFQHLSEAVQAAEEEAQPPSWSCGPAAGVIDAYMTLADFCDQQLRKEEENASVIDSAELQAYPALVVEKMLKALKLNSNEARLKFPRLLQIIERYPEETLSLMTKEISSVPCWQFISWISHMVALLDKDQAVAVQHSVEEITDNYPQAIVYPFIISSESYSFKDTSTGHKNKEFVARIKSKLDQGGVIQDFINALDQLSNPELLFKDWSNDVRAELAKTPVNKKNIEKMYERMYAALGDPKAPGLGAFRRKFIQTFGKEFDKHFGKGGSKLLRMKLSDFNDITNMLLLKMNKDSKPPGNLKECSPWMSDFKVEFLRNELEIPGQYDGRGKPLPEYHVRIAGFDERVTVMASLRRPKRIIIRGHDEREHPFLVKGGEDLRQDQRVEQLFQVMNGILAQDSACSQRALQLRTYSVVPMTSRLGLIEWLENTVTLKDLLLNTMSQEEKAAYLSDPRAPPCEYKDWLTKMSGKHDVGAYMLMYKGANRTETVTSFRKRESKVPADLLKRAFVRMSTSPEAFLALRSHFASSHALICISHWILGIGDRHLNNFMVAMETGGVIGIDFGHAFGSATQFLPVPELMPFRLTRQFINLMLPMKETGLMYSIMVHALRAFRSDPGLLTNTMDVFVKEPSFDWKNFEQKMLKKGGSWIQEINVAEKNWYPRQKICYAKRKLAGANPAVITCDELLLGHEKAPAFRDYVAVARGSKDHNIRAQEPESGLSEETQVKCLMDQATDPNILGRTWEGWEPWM

Compound	IC50 [nM]
CN(C)CCCOc1ncc(-c2ccc3ncc4c(c3c2)C2(CC2)C(=O)N4C)cc1NS(=O)(=O)c1cccnc1 [US12187742, Example 85]	< 0.5
CN1CC=C(c2ncc(-c3ccc4ncc5c(c4c3)C3(CCC3)C(=O)N5C)cc2NS(C)(=O)=O)CC1 [US12187742, Example 276]	< 0.5
CN(C)CCCOc1ncc(-c2ccc3ncc4c(c3c2)C2(CC2)C(=O)N4C)cc1NS(=O)(=O)c1cccs1 [US12187742, Example 120]	< 0.5
CN(C)CCCOc1ncc(-c2ccc3ncc4c(c3c2)C2(CC2)C(=O)N4C)cc1NS(=O)(=O)c1ccc(C(F)(F)F)cc1 [US12187742, Example 108]	< 0.5

Next, values leading:

IC50 [nM]	Compound
< 0.5	CC(C)NCCOc1ncc(-c2ccc3ncc4c(c3c2F)C2(CCC2)C(=O)N4C)cc1NS(C)(=O)=O [US12187742, Example 556]
< 0.5	CN1C(=O)C2(CC2)c2c1cnc1ccc(-c3cnc(OCCCN4CCCC4)c(NS(=O)(=O)C4CC4)c3)cc21 [US12187742, Example 60]
< 0.5	COc1ncc(-c2ccc3ncc4c(c3c2)C2(CC2)C(=O)N4C)cc1NS(=O)(=O)c1cccc(C(C)O)c1 (configuration not stated) [US12187742, Example 18]
